According to patent US8304445B2, “7-pyrazolyl tetracycline compounds and methods of use thereof” (Paratek Pharmaceuticals, Inc., priority 2001, dated 2012):
≈ marks a conversion by molar mass, not a printed value.

What was measured:
Format in all cases: cell-based
Settings in all cases: Mueller-Hinton broth, 37° C., 18 h
[1] = test system: E. coli ML 308-225; assay: MIC, broth microdilution, E. coli ML 308-225
Description: (§1) Growth-inhibitory activity was determined on liquid medium by the antibiotic dilution technique using 96-well microtiter system plates containing two-fold dilutions of antibiotic-agent in 0.2 ml. of Mueller-Hinton broth. Plates were inoculated with each test organism to yield a final inoculum of 5×10^5 CFU/ml and were incubated aerobically at 37° C. for 18 h. The MIC was defined as the lowest concentration of antibacterial agent that inhibited development of visible growth in the microdilution wells.

[2] = test system: H. influenzae ATCC 49247; assay: MIC, broth microdilution, H. influenzae ATCC 49247
Description: as §1

[3] = test system: S. aureus GFX01596 Tet R; assay: MIC, broth microdilution, S. aureus GFX01596 Tet R
Description: as §1

[4] = test system: M. catarrhalis ATCC 23246; assay: MIC, broth microdilution, M. catarrhalis ATCC 23246
Description: as §1

[5] = test system: S. pneumoniae 157; assay: MIC, broth microdilution, S. pneumoniae 157
Description: as §1

[6] = test system: S. pneumoniae GFX01778 Tet R; assay: MIC, broth microdilution, S. pneumoniae GFX01778 Tet R
Description: as §1

[7] = test system: S. aureus ATCC 29213; assay: MIC, broth microdilution, S. aureus ATCC 29213
Description: as §1

SMILES	MIC [1]	MIC [2]	MIC [3]	MIC [4]	MIC [5]	MIC [6]	MIC [7]
CN(C)[C@@H]1C(O)=C(C(N)=O)C(=O)[C@@]2(O)C(O)=C3C(=O)c4c(O)ccc(-n5ccc(C=O)c5)c4C[C@H]3C[C@@H]12 [Example 3, [4S-(4aα,5aαα,12aα)]-4-(Dimethylamino)-7-(1H-pyrrol-1-yl-3-carboxaldehyde)-1,4,4a,5,5a,6,11,12a-octahydro-3,10,12,12a-tetrahydroxy-1,11-dioxo-2-naphthacenecarboxamide]	0.5 µg/mL (≈ 0.985 µM)	1 µg/mL (≈ 1.97 µM)	0.25 µg/mL (≈ 0.493 µM)	0.008 µg/mL (≈ 0.0158 µM)	0.015 µg/mL (≈ 0.0296 µM)	2 µg/mL (≈ 3.94 µM)	0.015 µg/mL (≈ 0.0296 µM)
CN(C)[C@@H]1C(O)=C(C(N)=O)C(=O)[C@@]2(O)C(O)=C3C(=O)c4c(O)ccc(-n5ccc(C=NO)c5)c4C[C@H]3C[C@@H]12 [Example 4, [4S-(4aα,5aαα,12aα)]-4-(Dimethylamino)-7-(3-((hydroxymino)-methyl)-1H-pyrrol-1-yl)-1,4,4a,5,5a,6,11,12a-octahydro-3, 10,12,12a-tetrahydroxy-1,11-dioxo-2-naphthacenecarboxamide]	1 µg/mL (≈ 1.91 µM)	2 µg/mL (≈ 3.83 µM)	0.5 µg/mL (≈ 0.957 µM)	0.03 µg/mL (≈ 0.0574 µM)	0.03 µg/mL (≈ 0.0574 µM)	2 µg/mL (≈ 3.83 µM)	0.12 µg/mL (≈ 0.23 µM)
CN(C)[C@@H]1C(O)=C(C(N)=O)C(=O)[C@@]2(O)C(O)=C3C(=O)c4c(O)ccc(-n5ccc(C#N)c5)c4C[C@H]3C[C@@H]12 [Example 5, [4S-(4aα,5aαα12aα)]-7-(3-Cyanopyrrol-1-yl)-4-(dimethylamino)-1,4,4a,5,5a,6,11,12a-octahydro-3,10,12,12a-tetrahydroxy-1,11-dioxo-2-naphthacenecarboxamide]	0.5 µg/mL (≈ 0.991 µM)	0.5 µg/mL (≈ 0.991 µM)	0.5 µg/mL (≈ 0.991 µM)	0.001 µg/mL (≈ 0.00198 µM)	0.015 µg/mL (≈ 0.0297 µM)	2 µg/mL (≈ 3.96 µM)	0.015 µg/mL (≈ 0.0297 µM)
CON=Cc1ccn(-c2ccc(O)c3c2C[C@H]2C[C@H]4[C@H](N(C)C)C(O)=C(C(N)=O)C(=O)[C@@]4(O)C(O)=C2C3=O)c1 [Example 6, [4S-(4aα,5aα12aα)]-4-(Dimethylamino)-7-(3-((methyloxymino)methyl)-1H-pyrrol-1-yl)-1,4,4a,5,5a,6,11,12a-octahydro-3,10,12,12a-tetrahydroxy-1,11-dioxo-2-naphthacenecarboxamide]	2 µg/mL (≈ 3.73 µM)	2 µg/mL (≈ 3.73 µM)	0.5 µg/mL (≈ 0.932 µM)	0.004 µg/mL (≈ 0.00746 µM)	0.06 µg/mL (≈ 0.112 µM)	4 µg/mL (≈ 7.46 µM)	0.12 µg/mL (≈ 0.224 µM)
